Values joined by “and” are separate entries in the source; they are usually repeats but may differ in a detail not shown here. Equal values may be shown once. Read-outs that look alike come from different tables or passages of the source.
Key:
[1] = mean population model parameter; cited from earlier work
[2] = paracetamol alone vs with semaglutide; cited from earlier work
[3] = immediate release tablets, cited from earlier work
[4] = final model with semaglutide covariate
[5] = model without semaglutide covariate
[6] = semaglutide 1.0 mg s.c. once weekly at steady state
[7] = young adults, body weight 62–84 kg

SMILES: CC(C)c1c(C(=O)Nc2ccccc2)c(-c2ccccc2)c(-c2ccc(F)cc2)n1CC[C@@H](O)C[C@@H](O)CC(=O)O [atorvastatin]
- T50 estimate (atorvastatin with semaglutide): 83 min
- T50 (atorvastatin with semaglutide (Figure 8)): 1.38 h
- T50 estimate (atorvastatin without semaglutide): 16 min
- ka (Placebo), Bootstrap mean [95%CI] (bootstrap 1000 replicates): 6.56 [3.29–12.1] h^−1
- ktr (Placebo), Bootstrap mean [95%CI] (bootstrap 1000 replicates): 10.4 [4.48–44.0] h^−1
- Θkacovariate, Bootstrap mean [95%CI] (bootstrap 1000 replicates): 0.821 [0.649–0.925]
- Θktrcovariate, Bootstrap mean [95%CI] (bootstrap 1000 replicates): 0.820 [0.629–0.972]
- ω^2 Ka, Bootstrap mean [95%CI] (bootstrap 1000 replicates): 2.21 [1.41–3.32]
- ω^2 Ktr, Bootstrap mean [95%CI] (bootstrap 1000 replicates): 1.82 [0.390–3.17]
- Between subject variability ω^2 Ka, Estimates [4]: 2.03
- Between subject variability ω^2 Ktr, Estimates [4]: 1.82
- Θkacovariate, Estimates (fractional reduction of ka with semaglutide (dKadplacebo)): 0.829
- Θktrcovariate, Estimates (fractional reduction of ktr with semaglutide (dKtrdplacebo)): 0.791
- BSV variance (Omega^2) for ka before semaglutide covariate [5]: 3.29
- BSV variance (Omega^2) for ktr before semaglutide covariate [5]: 3.19
- ka when co-administered with semaglutide [6]: 0.986 h⁻¹
- ktr when co-administered with semaglutide [6]: 1.52 h⁻¹
- ktr (Placebo), Estimates (transit compartment rate constant, without semaglutide): 7.3 h⁻¹ and 7.28 h⁻¹
- decrease of ka when co-administered with semaglutide (with vs without semaglutide): 83%
- decrease of ktr when co-administered with semaglutide (with vs without semaglutide): 79%
- ka [1]: 3.5 h^‐1

SMILES: CC(=O)Nc1ccc(O)cc1 [paracetamol]
- alteration in paracetamol AUC0‐5h [2]: no significant alteration
- ka [3]: 4.33 h⁻¹
- V1/F [3, 7]: 30.7 L
- V2/F [3, 7]: 19.9 L

Source: paper PMC9263537 (Pharmacology Research & Perspectives, 2022)
